Test results from patent US11612606B2, “8-aminoisoquinoline compounds and uses thereof” (priority 2018, dated 2023).
Counter-ions that a name gives are not always drawn.

Biological target: HPK full length, T165E S171E (Homo sapiens (Human), UniProt Q92918, S171E/T165E)
Test: HPK1-FL HTRF enzymatic assay ("HTRF")
Type: biochemical
Details: ATP 1 mM, read-out: HPK1 Ki
Procedure: Assay Principle: HPK-FL enzyme phosphorylates Biotin-SLP-76 substrate in the presence of ATP at […] and varying concentrations of test compound. Product is detected by FRET using Eu-anti-pSLP76 Ab and SA-XL665. Also see www.cisbio.com/HTRF for additional HTRF technology information.
Instrumentation: Echo555 compound dispenser; Agilent Bravo; Perkin Elmer Envision.
To a 384 well Proxiplate with 80 nL compound or DMSO spotted on was added 4 μl/well kinase mix. The mixture was preincubated for 30 minutes and then 4 μl/well substrate mix was added. The solution was incubated for 60 min and then 4 μl/well detection mix was added. The solution was incubated for another 60 min.
Exemplary compounds were tested in the HTRF binding assays.

Chain of HPK full length, T165E S171E (Q92918 whole entry T165E/S171E, looked up): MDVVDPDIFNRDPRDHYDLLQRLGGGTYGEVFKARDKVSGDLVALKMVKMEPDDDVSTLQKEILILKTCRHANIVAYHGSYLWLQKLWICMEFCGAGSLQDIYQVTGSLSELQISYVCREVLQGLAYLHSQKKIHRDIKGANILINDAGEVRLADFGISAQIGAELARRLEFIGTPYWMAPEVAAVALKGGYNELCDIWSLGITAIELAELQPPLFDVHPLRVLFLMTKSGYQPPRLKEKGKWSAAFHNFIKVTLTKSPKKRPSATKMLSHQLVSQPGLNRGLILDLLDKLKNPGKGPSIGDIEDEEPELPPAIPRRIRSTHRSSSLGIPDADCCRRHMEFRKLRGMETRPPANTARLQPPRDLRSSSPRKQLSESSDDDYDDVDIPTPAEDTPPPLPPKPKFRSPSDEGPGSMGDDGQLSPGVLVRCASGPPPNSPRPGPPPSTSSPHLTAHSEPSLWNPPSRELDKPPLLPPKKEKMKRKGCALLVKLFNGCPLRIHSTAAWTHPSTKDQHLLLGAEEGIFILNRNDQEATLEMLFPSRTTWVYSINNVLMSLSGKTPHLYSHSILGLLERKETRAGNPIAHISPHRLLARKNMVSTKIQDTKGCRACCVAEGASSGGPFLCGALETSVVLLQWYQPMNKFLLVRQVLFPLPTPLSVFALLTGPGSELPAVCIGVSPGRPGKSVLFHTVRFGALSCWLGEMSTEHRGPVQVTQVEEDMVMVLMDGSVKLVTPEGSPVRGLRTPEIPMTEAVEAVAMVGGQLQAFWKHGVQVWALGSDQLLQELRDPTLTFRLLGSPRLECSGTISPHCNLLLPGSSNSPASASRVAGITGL

Structure (SMILES) | Ki [nM]
CCN1C[C@H](OC(=O)Nc2cc3cc(-c4cnc5c(c4C)NCCO5)c(F)c(N)c3cn2)CC1=O (single isomer, unassigned) [Compound 478a] | 0.25
CCN1C[C@@H](OC(=O)Nc2cc3cc(-c4cnc5c(c4C)NCCO5)c(F)c(N)c3cn2)CC1=O (single isomer, unassigned) [Compound 478b, (5)-1-Ethyl-5-oxopyrrolidin-3-yl (8-amino-7-fluoro-6-(8-methyl-2,3-dihydro-1H-pyrido[2,3-b][1,4]oxazin-7-yl)isoquinolin-3-yl)carbamate] | < 0.013
Cc1c(-c2cc3cc(NC(=O)O[C@H]4CC(=O)N(C(C)C)C4)ncc3c(N)c2F)cnc2c1NCCO2 (single isomer, unassigned) [Compound 479a] | 0.021
Cc1c(-c2cc3cc(NC(=O)O[C@@H]4CC(=O)N(C(C)C)C4)ncc3c(N)c2F)cnc2c1NCCO2 (single isomer, unassigned) [Compound 479b] | < 0.013
Cc1c(-c2cc3cc(NC(=O)O[C@@H]4CN(C)C(=O)C4(C)C)ncc3c(N)c2F)cnc2c1NCCO2 (single isomer, unassigned) [Compound 480a] | 0.034
Cc1c(-c2cc3cc(NC(=O)O[C@H]4CN(C)C(=O)C4(C)C)ncc3c(N)c2F)cnc2c1NCCO2 (single isomer, unassigned) [Compound 480b] | 0.28
Cc1c(-c2cc3cc(NC(=O)O[C@H]4CC(=O)N(C)C4)ncc3c(N)c2F)cnc2c1NCCC2 (single isomer, unassigned) [Compound 481a] | 0.184
Cc1c(-c2cc3cc(NC(=O)O[C@@H]4CC(=O)N(C)C4)ncc3c(N)c2F)cnc2c1NCCC2 (single isomer, unassigned) [Compound 481b] | 0.018
Cc1c(-c2cc3cc(NC(=O)O[C@@H]4Cc5nccn5C4)ncc3c(N)c2F)cnc2c1NCCO2 (single isomer, unassigned) [Compound 504a] | < 0.013
Cc1c(-c2cc3cc(NC(=O)O[C@H]4Cc5nccn5C4)ncc3c(N)c2F)cnc2c1NCCO2 (single isomer, unassigned) [Compound 504b] | 0.76
Cc1c(-c2cc3cc(NC(=O)OC4C5COCC4CN(C(C)C)C5)ncc3c(N)c2F)cnc2c1NCCO2 (single isomer, unassigned) [Compound 506a] | < 0.013
Cc1c(-c2cc3cc(NC(=O)OC4C5COCC4CN(CC(F)F)C5)ncc3c(N)c2F)cnc2c1NCCO2 (single isomer, unassigned) [Compound 507a] | < 0.013
Cc1c(-c2cc3cc(NC(=O)O[C@H]4CCO[C@@H]4C)ncc3c(N)c2F)cnc2c1NCCO2 (single isomer, unassigned) [Compound 510b] | 0.308
Cc1c(-c2cc3cc(NC(=O)O[C@@H]4CCO[C@@H]4C)ncc3c(N)c2F)cnc2c1NCCO2 (single isomer, unassigned) [Compound 510d] | 0.016
Cc1c(-c2cc3cc(NC(=O)O[C@@H]4CCC5(CCN(C6COC6)CC5)C4)ncc3c(N)c2F)cnc2c1NCCO2 (single isomer, unassigned) [Compound 511a] | < 0.013
Cc1c(-c2cc3cc(NC(=O)O[C@H]4CCC5(CCN(C6COC6)CC5)C4)ncc3c(N)c2F)cnc2c1NCCO2 (single isomer, unassigned) [Compound 511b] | 0.017
CC[C@@H]1COC[C@H]1OC(=O)Nc1cc2cc(-c3cnc4c(c3C)NCCO4)c(F)c(N)c2cn1 (single isomer, unassigned) [Compound 515a] | 0.105
CC[C@H]1COC[C@@H]1OC(=O)Nc1cc2cc(-c3cnc4c(c3C)NCCO4)c(F)c(N)c2cn1 (single isomer, unassigned) [Compound 515b] | 0.017
Cc1c(-c2cc3cc(NC(=O)O[C@H]4COC[C@@H]4C4CC4)ncc3c(N)c2F)cnc2c1NCCO2 (single isomer, unassigned) [Compound 516a] | 0.031
Cc1c(-c2cc3cc(NC(=O)O[C@@H]4COC[C@H]4C4CC4)ncc3c(N)c2F)cnc2c1NCCO2 (single isomer, unassigned) [Compound 516b] | < 0.013
Cc1c(-c2cc3cc(NC(=O)O[C@@H]4CCOC4)ncc3c(N)c2F)cnc2c1NC[C@@H](F)O2 (single isomer, unassigned) [Compound 518a] | 0.069
Cc1c(-c2cc3cc(NC(=O)O[C@@H]4CCOC4)ncc3c(N)c2F)cnc2c1NC[C@H](F)O2 (single isomer, unassigned) [Compound 518b] | 0.044
Cc1c(-c2cc3cc(NC(=O)O[C@H](C)CN(C)C)ncc3c(N)c2F)cnc2c1NCCO2 (single isomer, unassigned) [Compound 523a] | 0.85
Cc1c(-c2cc3cc(NC(=O)O[C@@H](C)CN(C)C)ncc3c(N)c2F)cnc2c1NCCO2 (single isomer, unassigned) [Compound 523b, (5)-1-(Dimethylamino)propan-2-yl (8-amino-7-fluoro-6-(8-methyl-2,3-dihydro-1H-pyrido[2,3-b][1,4]oxazin-7-yl)isoquinolin-3-yl)carbamate] | 8.75

Structure (SMILES) | Ki [nM]
Cc1c(-c2cc3cc(NC(=O)O[C@H](C)CO)ncc3c(N)c2F)cnc2c1NCCO2 (single isomer, unassigned) [Compound 530a] | 0.26
Cc1c(-c2cc3cc(NC(=O)O[C@@H](C)CO)ncc3c(N)c2F)cnc2c1NCCO2 (single isomer, unassigned) [Compound 530b, (5)-1-Hydroxypropan-2-yl (8-amino-7-fluoro-6-(8-methyl-2,3-dihydro-1H-pyrido[2,3-b][1,4]oxazin-7-yl)isoquinolin-3-yl)carbamate] | 0.11
Cc1c(-c2cc3cc(NC(=O)OC4CN(C(=O)[C@H]5C[C@@H]5F)C4)ncc3c(N)c2F)cnc2c1NCCC2 (single isomer, unassigned) [Compound 531a] | 0.055
Cc1c(-c2cc3cc(NC(=O)OC4CN(C(=O)[C@@H]5C[C@H]5F)C4)ncc3c(N)c2F)cnc2c1NCCC2 (single isomer, unassigned) [Compound 531b] | 0.152
Cc1c(-c2cc3cc(NC(=O)O[C@@H]4CC[C@@](C)(O)C4)ncc3c(N)c2F)cnc2c1NCCO2 (single isomer, unassigned) [Compound 533a, hydrochloride] | 0.035
Cc1c(-c2cc3cc(NC(=O)O[C@H]4CC[C@](C)(O)C4)ncc3c(N)c2F)cnc2c1NCCO2 (single isomer, unassigned) [Compound 533b, hydrochloride] | 0.059
Cc1c(-c2cc3cc(NC(=O)O[C@H]4CC[C@@](C)(O)C4)ncc3c(N)c2F)cnc2c1NCCO2 (single isomer, unassigned) [Compound 533c, hydrochloride] | 0.014
Cc1c(-c2cc3cc(NC(=O)O[C@@H]4CC[C@](C)(O)C4)ncc3c(N)c2F)cnc2c1NCCO2 (single isomer, unassigned) [Compound 533d, hydrochloride] | 0.015
Cc1c(-c2cc3cc(NC(=O)O[C@@H]4COC[C@H]4C#N)ncc3c(N)c2F)cnc2c1NCCO2 (single isomer, unassigned) [Compound 538a] | 0.058
Cc1c(-c2cc3cc(NC(=O)O[C@H]4COC[C@@H]4C#N)ncc3c(N)c2F)cnc2c1NCCO2 (single isomer, unassigned) [Compound 538b] | 0.016
Cc1c(N)cncc1-c1cc2cc(NC(=O)O[C@H]3COC[C@@H]3C)ncc2c(N)c1F (single isomer, unassigned) [Compound 544a] | 0.138
Cc1c(N)cncc1-c1cc2cc(NC(=O)O[C@@H]3COC[C@H]3C)ncc2c(N)c1F (single isomer, unassigned) [Compound 544b] | 2.7
Cc1c(-c2cc3cc(NC(=O)OC4CN(C(=O)[C@H]5C[C@@H]5F)C4)ncc3c(N)c2F)cnc2c1NCCO2 (single isomer, unassigned) [Compound 545a] | 0.021
Cc1c(-c2cc3cc(NC(=O)OC4CN(C(=O)[C@@H]5C[C@H]5F)C4)ncc3c(N)c2F)cnc2c1NCCO2 (single isomer, unassigned) [Compound 545b] | 0.018
CO[C@@H]1COC[C@H]1OC(=O)Nc1cc2cc(-c3cnc4c(c3C)NCCO4)c(F)c(N)c2cn1 (single isomer, unassigned) [Compound 546b] | 0.051
CCc1c(-c2cc3cc(NC(=O)O[C@H]4COC[C@@H]4C)ncc3c(N)c2F)cnc2c1NCCO2 (single isomer, unassigned) [Compound 555a, hydrochloride] | < 0.013
Cc1c(-c2cc(N)c3cnc(NC(=O)O[C@H]4COC[C@@H]4C)cc3c2)cnc2c1NCCO2 (single isomer, unassigned) [Compound 556a, hydrochloride] | 0.032
Cc1c(-c2cc(N)c3cnc(NC(=O)O[C@@H]4COC[C@H]4C)cc3c2)cnc2c1NCCO2 (single isomer, unassigned) [Compound 556b, hydrochloride] | < 0.013
Cc1c(-c2cc3cc(NC(=O)O[C@H]4COC[C@@H]4C)ncc3c(N)c2F)cnc2c1NC(=O)CO2 (single isomer, unassigned) [Compound 558a, hydrochloride] | 0.9
Cc1c(-c2cc3cc(NC(=O)O[C@@H]4COC[C@H]4C)ncc3c(N)c2F)cnc2c1NC(=O)CO2 (single isomer, unassigned) [Compound 558b, hydrochloride] | 3.75
Cc1c(-c2cc3cc(NC(=O)O[C@@H]4CC[C@@H]4C)ncc3c(N)c2F)cnc2c1NCCO2 (single isomer, unassigned) [Compound 559a] | 0.025
Cc1c(-c2cc3cc(NC(=O)O[C@@H]4CC[C@@H]4C)ncc3c(N)c2F)cnc2c1NCCO2 (single isomer, unassigned) [Compound 559c] | < 0.013
Cc1c(-c2cc3cc(NC(=O)OC4CC(O)C4)ncc3c(N)c2F)cnc2c1NC[C@@H](C)C2 (single isomer, unassigned) [Compound 560a] | 0.019
